The values that follow come from patent publication US10626094B2 (La Jolla Institute of Allergy & Immunology, priority 2014, dated 2020).

LMPTP-A (Low Molecular Weight Protein Tyrosine Phosphatase-A) enzyme, sequence (P24666 whole entry): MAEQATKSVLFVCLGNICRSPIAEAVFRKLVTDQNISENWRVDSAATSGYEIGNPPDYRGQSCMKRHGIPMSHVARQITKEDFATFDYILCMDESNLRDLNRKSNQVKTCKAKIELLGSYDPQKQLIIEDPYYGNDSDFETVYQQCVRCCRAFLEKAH

This assay deals with LMPTP-A (Low Molecular Weight Protein Tyrosine Phosphatase-A) enzyme (Homo sapiens (Human), UniProt P24666). The experiment in a line: LMPTP primary screening / LMPTP (OMFP) enzyme inhibition assay, fluorescence intensity. The format is biochemical. To be noted: LMPTP-A, OMFP substrate, method of Example 2; read-out: IC50. On the procedure:
This assay attempts to identify inhibitors of the LMPTP-A (Low Molecular Weight Protein Tyrosine Phosphatase-A) enzyme. It is run in 1536-well format and is measured via fluorescence intensity.
A listing of materials is provided: • Item, source, catalog no. • LMPTP-A Enzyme Stock Solution (4.22 mg/ml or 206.8 μM), SBMRI Protein Facility, • N/A • OMFP, Sigma, M2629-100MG • Bis-Tris pH 6.0, Fisher Sci, BP301-100 • Triton-X 100, Sigma, T9284 • DTT, Sigma, D9779 • Mol. Grade Water, Mediatech, Inc., 46-000-CM • 1536-well black High base opaque bottom plate, Nexus Biosystems, 00019120
Final assay conditions are: • 0.625 nM LMPTP-A Enzyme • 400 μM OMFP • 50 mM Bis-Tris pH 6.0 • 1 mM DTT • 0.01% Triton-X 100 • 20 μM test compound • 3% DMSO (2% from substrate and 1% from compounds) • 6 μL reaction volume • 50 minutes incubation at room temp
Assay Procedure • 1. Prepare Reagents as described in section F. Recipe. • 2. Using LabCyte Echo, transfer 60 nL from 2 mM test compound source plate into assay plate Col. 5-48 (final concentration of test compounds is 20 μM). 60 nL of DMSO should be transferred to col. 1-4 for positive and negative control wells. • 3. Spin plates at 1000 rpm for 1 minute in centrifuge. • 4. […] Using the Bioraptr, add 3 μL/well of enzyme solution to col. 3-48. • 6. Using the Bioraptr, add 3 μL/well of substrate solution to col. 1-48. • 7. Spin plates at 1000 rpm for 1 minute in centrifuge. • 8. Incubate plates in the dark at room temperature for 50 minutes. • 9. Read plates on PerkinElmer Viewlux using a FI protocol.
Broadly, the IC50 is the midpoint of a concentration-inhibition curve. As to “2-(3-bromo-4-chloro-2-fluorophenyl)(4-quinolyl)](3-piperidylpropyl)amine [Compound I101]”, the IC50 was in the range of 0.801 to 5 µM.

On to `CN(C)c1cc(-c2ccccc2C(F)(F)F)nc2ccccc12` [Compound D2, N,N-dimethyl-2-(2-(trifluoromethyl)phenyl)quinolin-4-amine], for which the IC50 is 0.801 to 5 µM.

For `FC(F)(F)c1ccccc1-c1cc(NCCCN2CCCCC2)c2ccccc2n1` [Compound G1, (3-piperidin-1-yl-propyl)-[2-(2-trifluoromethyl-phenyl)-quinolin-4-yl]-amine], the IC50 is 0.801 to 5 µM.

As to `FC(F)(F)Oc1ccccc1-c1cc(NCCCN2CCCCC2)c2ccccc2n1` [Compound G2, (3-Piperidin-1-yl-propyl)-[2-(2-trifluoromethoxy-phenyl)-quinolin-4-yl]-amine], the IC50 lay in the range of 0.2 to 0.8 µM.

For the compound `FC(F)(F)Oc1cccc(-c2cc(NCCCN3CCCCC3)c3ccccc3n2)c1` [Compound G3, (3-Piperidin-1-yl-propyl)-[2-(3-trifluoromethoxy-phenyl)-quinolin-4-yl]-amine], the IC50 is 0.801 to 5 µM.

Take `FC(F)(F)Oc1ccc(-c2cc(NCCCN3CCCCC3)c3ccccc3n2)cc1` [Compound G4, (3-Piperidin-1-yl-propyl)-[2-(4-trifluoromethoxy-phenyl)-quinolin-4-yl]-amine]: the IC50 lay in the range of 0.801 to 5 µM.

Consider `CN(C)c1cc(-c2ccc(OC(F)(F)F)cc2)nc2ccccc12` [Compound G5, N,N-dimethyl-2-(4-(trifluoromethoxy)phenyl)quinolin-4-amine], for which the IC50 was 0.801 to 5 µM.

`Fc1ccccc1-c1cc(NCCCN2CCCCC2)c2ccccc2n1` [Compound G6, [2-(2-Fluoro-phenyl)-quinolin-4-yl]-(3-piperidin-1-yl-propyl)-amine]: the IC50 was 0.801 to 5 µM.

In the case of `Fc1cccc(-c2cc(NCCCN3CCCCC3)c3ccccc3n2)c1` [Compound G7, [2-(3-Fluoro-phenyl)-quinolin-4-yl]-(3-piperidin-1-yl-propyl)-amine], the IC50 fell in the range of 0.801 to 5 µM.

As to `Fc1ccc(-c2cc(NCCCN3CCCCC3)c3ccccc3n2)cc1` [Compound G8, [2-(4-Fluoro-phenyl)-quinolin-4-yl]-(3-piperidin-1-yl-propyl)-amine], the IC50 fell in the range of 0.801 to 5 µM.

As for `Cc1cccc(-c2cc(NCCCN3CCCCC3)c3ccccc3n2)c1` [Compound G9, (3-Piperidin-1-yl-propyl)-(2-m-tolyl-quinolin-4-yl)-amine], the IC50 was in the range of 0.801 to 5 µM.

Turning to `CN(C)c1ccc(-c2cc(NCCCN3CCCCC3)c3ccccc3n2)cc1` [Compound G10, [2-(4-Dimethylamino-phenyl)-quinolin-4-yl]-(3-piperidin-1-yl-propyl)-amine], the IC50 fell in the range of 0.801 to 5 µM.

As to `CN(C)c1ccc(-c2cc(N(C)C)c3ccccc3n2)cc1` [Compound G11, [2-(4-Dimethylamino-phenyl)-quinolin-4-yl]-dimethyl-amine], the half-inhibitory concentration (IC50) is above 5 µM.

`c1coc(-c2cc(NCCCN3CCCCC3)c3ccccc3n2)c1` [Compound G12, (2-Furan-2-yl-quinolin-4-yl)-(3-piperidin-1-yl-propyl)-amine]: the IC50 was in the range of 0.801 to 5 µM.

As for `CN(C)c1cc(-c2ccco2)nc2ccccc12` [Compound G13, (2-Furan-2-yl-quinolin-4-yl)-dimethyl-amine], the IC50 is above 5 µM.

Turning to `c1ccc2c(NCCCN3CCCCC3)cc(-c3ccoc3)nc2c1` [Compound G14, (2-Furan-3-yl-quinolin-4-yl)-(3-piperidin-1-yl-propyl)-amine], the half-maximal inhibitory concentration (IC50) was in the range of 0.801 to 5 µM.

Turning to `CN(C)c1cc(-c2ccoc2)nc2ccccc12` [Compound G15, (2-Furan-3-yl-quinolin-4-yl)-dimethyl-amine], the IC50 is above 5 µM.

Turning to `c1csc(-c2cc(NCCCN3CCCCC3)c3ccccc3n2)c1` [Compound G16, (3-Piperidin-1-yl-propyl)-(2-thiophen-2-yl-quinolin-4-yl)-amine], the IC50 lay in the range of 0.801 to 5 µM.

As to `CN(C)c1cc(-c2cccs2)nc2ccccc12` [Compound G17, Dimethyl-(2-thiophen-2-yl-quinolin-4-yl)-amine], the IC50 is above 5 µM.

For `Cn1cc(-c2cc(NCCCN3CCCCC3)c3ccccc3n2)cn1` [Compound G18, [2-(1-Methyl-1H-pyrazol-4-yl)-quinolin-4-yl]-(3-piperidin-1-yl-propyl)-amine], the IC50 is above 5 µM.

For the compound `CN(C)c1cc(-c2cnn(C)c2)nc2ccccc12` [Compound G19, Dimethyl[2-(1-methylpyrazol-4-yl)(4-quinolyl)]amine], the IC50 is above 5 µM.

As to `Cc1nc(C)c(-c2cc(NCCCN3CCCCC3)c3ccccc3n2)s1` [Compound G20], the IC50 was 0.801 to 5 µM.

As for `Cc1nc(C)c(-c2cc(N(C)C)c3ccccc3n2)s1` [Compound G21, [2-(2,4-Dimethyl-thiazol-5-yl)-quinolin-4-yl]-dimethyl-amine], the half-inhibitory concentration (IC50) was above 5 µM.

As for `c1c[nH]c(-c2cc(NCCCN3CCCCC3)c3ccccc3n2)c1` [Compound G22, (3-Piperidin-1-yl-propyl)-[2-(1H-pyrrol-2-yl)-quinolin-4-yl]-amine], the IC50 fell in the range of 0.801 to 5 µM.

On to `CN(C)c1cc(-c2ccc[nH]2)nc2ccccc12` [Compound G23, Dimethyl-[2-(1H-pyrrol-2-yl)-quinolin-4-yl]-amine], for which the half-inhibitory concentration (IC50) is above 5 µM.

In the case of `COc1ccc(-c2cc(NCCCN3CCCCC3)c3cc(C)ccc3n2)cc1` [Compound G24, [2-(4-methoxy-phenyl)-6-methyl-quinolin-4-yl]-(3-piperidin-1-yl-propyl)-amine], the IC50 was above 5 µM.

`COc1ccc(-c2cc(NCCCN3CCCCC3)c3cc(OC)ccc3n2)cc1` [Compound G25, [6-Methoxy-2-(4-methoxy-phenyl)-quinolin-4-yl]-(3-piperidin-1-yl-propyl)-amine]: the IC50 is above 5 µM.

As to `COc1ccc(-c2cc(NCCCN3CCCCC3)c3ccc(OC)cc3n2)cc1` [Compound G26, [7-Methoxy-2-(4-methoxy-phenyl)-quinolin-4-yl]-(3-piperidin-1-yl-propyl)-amine], the IC50 was above 5 µM.

`COc1ccc(-c2cc(NCCCN3CCCCC3)c3cc(Cl)ccc3n2)cc1` [Compound G27, [6-Chloro-2-(4-methoxy-phenyl)-quinolin-4-yl]-(3-piperidin-1-yl-propyl)-amine]: the IC50 is above 5 µM.

Take `COc1ccc(-c2cc(NCCCN3CCCCC3)c3cc(C(F)(F)F)ccc3n2)cc1` [Compound G28, [2-(4-Methoxy-phenyl)-6-trifluoromethyl-quinolin-4-yl]-(3-piperidin-1-yl-propyl)-amine]: the IC50 is above 5 µM.

As for `COc1ccc(-c2cc(NCCCN3CCCCC3)c3cc([N+](=O)[O-])ccc3n2)cc1` [Compound G29, [2-(4-Methoxy-phenyl)-6-nitro-quinolin-4-yl]-(3-piperidin-1-yl-propyl)-amine], the IC50 is above 5 µM.

For the compound `COc1ccc(-c2cc(NCCCN3CCCCC3)c3cc(F)ccc3n2)cc1` [Compound G30, [6-Fluoro-2-(4-methoxy-phenyl)-quinolin-4-yl]-(3-piperidin-1-yl-propyl)-amine], the IC50 fell in the range of 0.801 to 5 µM.

As to `COc1ccc(-c2cc(NCCCN3CCCCC3)c3cc(OC(F)(F)F)ccc3n2)cc1` [Compound G31, [2-(4-Methoxy-phenyl)-6-trifluoromethoxy-quinolin-4-yl]-(3-piperidin-1-yl-propyl)-amine], the half-maximal inhibitory concentration (IC50) is above 5 µM.

For `N#Cc1cccc(Nc2cc(-c3ccccc3C(F)(F)F)nc3ccccc23)c1` [Compound G32, 3-[2-(2-Trifluoromethyl-phenyl)-quinolin-4-ylamino]-benzonitrile], the half-maximal inhibitory concentration (IC50) fell in the range of 0.801 to 5 µM.

For the compound `FC(F)(F)c1ccccc1-c1cc(Nc2ccccc2)c2ccccc2n1` [Compound G33, Phenyl-[2-(2-trifluoromethyl-phenyl)-quinolin-4-yl]-amine], the IC50 is above 5 µM.

For `Fc1ccc(Nc2cc(-c3ccccc3C(F)(F)F)nc3ccccc23)cc1` [Compound G34, (4-Fluoro-phenyl)-[2-(2-trifluoromethyl-phenyl)-quinolin-4-yl]-amine], the IC50 was 0.801 to 5 µM.

For the compound `COc1ccc(-c2cc(Nc3ccccc3)c3ccccc3n2)cc1` [Compound G35, [2-(4-Methoxy-phenyl)-quinolin-4-yl]-phenyl-amine], the IC50 lay in the range of 0.801 to 5 µM.

With `COc1ccc(-c2cc(Nc3ccccc3C(F)(F)F)c3ccccc3n2)cc1` [Compound G36, [2-(4-Methoxy-phenyl)-quinolin-4-yl]-(2-trifluoromethyl-phenyl)-amine], the half-maximal inhibitory concentration (IC50) was above 5 µM.

For `COc1ccc(-c2cc(Nc3cccc(C(F)(F)F)c3)c3ccccc3n2)cc1` [Compound G37, [2-(4-Methoxy-phenyl)-quinolin-4-yl]-(3-trifluoromethyl-phenyl)-amine], the IC50 is above 5 µM.

Regarding `COc1ccc(-c2cc(Nc3cccc(C#N)c3)c3ccccc3n2)cc1` [Compound G38, 3-[2-(4-Methoxy-phenyl)-quinolin-4-ylamino]-benzonitrile], the IC50 lay within 0.2 to 0.8 µM.
